The target of the assay is Substance-P receptor (Homo sapiens, UniProt P25103). In words: Binding affinity towards human Tachykinin receptor 1 by the displacement of [125I]- Substance P in CHO Cells. In general terms: In a radioligand displacement assay an active substance lowers the binding of a labelled ligand.

In ChEMBL document CHEMBL1127943, “Morpholine-based substance P antagonists: assessment of the 3-point binding model” (Bioorg Med Chem Lett, 1994) one finds IC50 data, which are given here for four molecules.

Substance-P receptor, sequence (P25103 whole entry): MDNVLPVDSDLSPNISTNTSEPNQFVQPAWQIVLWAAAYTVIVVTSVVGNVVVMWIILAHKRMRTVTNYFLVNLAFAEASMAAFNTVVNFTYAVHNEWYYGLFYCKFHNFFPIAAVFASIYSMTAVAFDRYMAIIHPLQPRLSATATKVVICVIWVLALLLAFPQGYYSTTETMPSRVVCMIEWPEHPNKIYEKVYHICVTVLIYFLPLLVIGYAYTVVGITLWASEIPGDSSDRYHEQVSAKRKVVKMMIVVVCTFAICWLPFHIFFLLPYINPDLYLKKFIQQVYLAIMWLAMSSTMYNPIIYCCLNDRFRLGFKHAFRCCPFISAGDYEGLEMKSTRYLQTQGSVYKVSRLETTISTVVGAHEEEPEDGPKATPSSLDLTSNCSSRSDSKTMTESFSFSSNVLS

In general, IC50 refers to the point on the concentration scale where inhibition reaches its midpoint. A lower IC50 goes with greater potency in that assay. Take `FC(F)(F)c1cc(C2OC2[C@@H]2OCCN[C@@H]2c2ccccc2)cc(C(F)(F)F)c1` (some centres undefined): the IC50 stood at 87 nM. That is a double-digit nanomolar value.

For the molecule `FC(F)(F)c1cc(CC[C@@H]2OCCN[C@@H]2c2ccccc2)cc(C(F)(F)F)c1`, the concentration for half-maximal inhibition (IC50) was determined as 1530 nM. Compared with the last molecule, the IC50 is about 18-fold higher.

As to `O=C1CO[C@@H](/C=C/c2cc(C(F)(F)F)cc(C(F)(F)F)c2)[C@@H](c2ccccc2)N1`, the IC50 worked out at 2530 nM.

As to `FC(F)(F)c1cc(CC[C@H]2OCCN[C@@H]2c2ccccc2)cc(C(F)(F)F)c1`, the IC50 is 1130 nM.
